Experimental data reported in PMC5442318, “Hundreds of dual-stage antimalarial molecules discovered by a functional gametocyte screen” (Nature Communications, 2017).
pIC50: −log10 of the molar value. Where two headings read alike, the source gives them in different places.

Key:
[1] = tested on: P. falciparum stages IV–V gametocytes; assay: Gametocytocidal ATP-depletion assay (gametocyte ATP bioluminescence); assay type: cell-based, Plasmodium falciparum; settings: for inhibition at 2 µM: Plasmodium falciparum, mean
Summary of the method: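 Purified stage IV–V gametocytes (12,500/well) incubated with compound for 48 h at 37 °C under 3% O2/5% CO2. ATP measured by BacTiter-Glo luminescence as a viability surrogate; hits tested at 2 μM single concentration.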

[2] = tested on: HepG2 cells; assay: HepG2 cytotoxicity assay; assay type: cell-based; settings: for Selectivity ratio: HepG2 TOX50 vs Pf FGAA IC50
Summary of the method: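 Post-incubation CellTiter-Glo luminescence; 30 min RT equilibration, 10 min RT stabilization before reading.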

[3] = tested on: P. falciparum stage V female gametocytes; assay: P. falciparum female gametocyte activation assay (Pf FGAA), 24 h or 48 h preincubation, Pfs25 expression readout; assay type: cell-based, Plasmodium falciparum NF54; set-up: key to Biological profile: 49 compounds that were only active with a 48 h exposure (designated as slow-acting); 29 compounds additionally showed activity with only 24 h exposure (designated as fast-acting); when the compounds were added 30 min after triggering gametocyte activation, 12 compounds prevented cell surface expression of Pfs25 (designated as gamete-targeting); settings: for IC50: 24h incubation time, read-out: Pf FGAA IC50 (µM) 24h; for Pf FGAA classification: SLOW / FAST / GAMETE from activity at 48h, 24h, 0h incubation; for Biological profile: Pf FGAA with 48 h, 24 h or post-activation addition, active = IC50 below 2 μM
Summary of the method: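 Purified stage V gametocytes from P. falciparum NF54 gametocyte cultures were exposed to compounds for 24 h or 48 h at 37 °C under 3% O2/5% CO2, then activated by temperature drop plus xanthurenic acid. Activated females were stained with Cy3-anti-Pfs25 (0.5 μg ml^−1) for 24 h at 26 °C and counted by high-content imaging; pIC50 by nonlinear regression.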

[4] = tested on: P. falciparum asexual blood stages; settings: TCAMS data, cited from earlier work; for pIC50: ref 1 (Gamo et al., 2010), read-out: Pf Asexual blood stages XC50; for Pf Asexual stages XC50: ref 1 (Gamo, F. J. et al., Nature 465, 305-310, 2010)
[5] = tested on: P. falciparum female gametes; assay: Pf FGAA with compounds added 30 min after triggering gametocyte activation (gamete-targeting); assay type: cell-based, Plasmodium falciparum NF54; settings: 0h incubation time
[6] = mean, read-out: Gametocytes mean Pf FGAA IC50
[7] = Plasmodium falciparum, mean, read-out: Gametocytes mean Pf FGAA IC50

Structure (SMILES) | Gametocytes mean ATP inhibition at 2µM (%) [1] [%] | HepG2 cells mean TOX50 [2] [µM] | IC50 [3] [µM] | Pf FGAA classification [3] | pIC50 [3, 6] | pIC50 [4] | Pf Asexual stages XC50 [4] [µM] | IC50 [5] [µM] | HepG2 cells TOX50 [2] [µM] | Biological profile [3] | pIC50 ([3]; stage V gametocytes, 48 h exposure, read-out: PfFGAA IC50) | inhibition at 2 µM [1] [%] | Selectivity ratio [2] | IC50 ([3]; Plasmodium falciparum) [µM] | pIC50 [3, 7] | IC50 ([5]; Plasmodium falciparum) [µM] | selectivity ratio (selectivity index) ([2]; HepG2 Tox50 vs Pf FGAA IC50) | pIC50 ([3]; Plasmodium falciparum, stage V gametocytes, 48 h exposure, read-out: PfFGAA IC50)
Cc1cc(C(F)(F)F)cc(-n2ncc(-c3ccc(C(=O)NCc4ccccc4N)cc3)c2N)n1.O=C(O)C(F)(F)F [TCMDC-136658] | -1.42 | 26.82 | 12.5 | SLOW | 5.84 | 6.35 | 0.45 | > 20 | – | – | – | – | – | – | – | – | – | –
CN1CCN(Cc2ccc(OCc3cccc(COc4ccc(CN5CCN(C)CC5)cc4I)c3)c(I)c2)CC1.Cl [TCMDC-137239] | -13.43 | 5.01 | 6.48 | SLOW | 5.73 | 6.00 | 1.01 | 15.1 | – | – | – | – | – | – | – | – | – | –
Clc1nc(Cl)c2c(ccn2Cc2ccccc2)n1 [TCMDC-137801] | -14.95 | >100 | 2.29 | FAST | 5.84 | 6.10 | 0.79 | > 20 | >100 | – | – | – | – | – | – | – | – | –
N#Cc1ccc(Cn2ccc3c4c(N)nc(N)nc4ccc32)cc1 [TCMDC-137820] | -6.11 | <0.0017 | 1.91 | FAST | – | 8.52 | 0.003 | 8.15 | <0.0017 | fast-acting | 5.97 | – | – | – | – | – | – | –
Cc1ccc(S(=O)(=O)N(CCCNCc2cccc(O)c2)c2ccccc2)cc1 [TCMDC-138022] | – | 44.67 | – | SLOW | – | 6.11 | 0.77 | – | – | – | – | 32 | 39.21 | > 20 | 5.94 | > 20 | – | –
COc1cc2nc(Nc3ccc4c(ccn4Cc4ccccc4)c3)nc(Nc3ccc4c(ccn4Cc4ccccc4)c3)c2cc1OC [TCMDC-138237] | 12.64 | 14.13 | 5.44 | SLOW | 5.80 | 6.19 | 0.65 | > 20 | – | – | – | – | – | – | – | – | – | –
Cl.Fc1cc(Cl)ccc1Nc1ccnc2cc(-c3ccc(CN4CCNCC4)o3)ccc12 [TCMDC-138394] | 1.31 | 12.05 | 10 | SLOW | 5.72 | 6.55 | 0.28 | > 20 | – | – | – | – | – | – | – | – | – | –
CN(C)CCNCc1cccc(-c2ccc3c(Nc4ccc(Oc5ccccn5)cc4)ccnc3c2)c1 [TCMDC-138493] | 38.43 | 3.98 | 2.58 | GAMETE | 6.09 | 6.64 | 0.23 | 2.27 | – | – | – | – | – | – | – | – | – | –
CN(/N=C/C=C/c1ccc(Cl)cc1)c1nc(NCCc2ccc(O)cc2)nc(N2CCNCC2)n1 [TCMDC-138546] | -1.95 | 13.18 | 11.2 | SLOW | 5.71 | 6.06 | 0.87 | > 20 | – | – | – | – | – | – | – | – | – | –
Clc1ccc(Nc2nc(NCc3ccccc3)nc(N/N=C/c3ccccn3)n2)cc1 [TCMDC-138557] | – | 13.96 | – | FAST | – | 6.11 | 0.78 | – | – | – | – | 35.7 | 53.35 | 0.4 | 6.59 | 2.98 | – | –
CC(C)(C)c1ccc(CNCCOc2ccc(Nc3nnc(-c4ccc(-c5ncc[nH]5)cc4)o3)c3ccccc23)cc1.O=C(O)C(F)(F)F [TCMDC-138667] | -11.45 | 5.96 | 3.03 | SLOW | 6.21 | 6.85 | 0.14 | 13.2 | – | – | – | – | – | – | – | – | – | –
COC(=O)c1ccc(-c2ccc(C(=O)NCC3CCN(c4nc(N)c5cc(OC)c(OC)cc5n4)CC3)cc2)cc1 [TCMDC-138721] | 31.66 | 6.10 | 1.88 | FAST | 6.04 | 6.72 | 0.19 | 13.5 | – | – | – | – | – | – | – | – | – | –
O=C(Nc1ccc(-c2ccccc2)c(OCCN2CCNCC2)c1)c1ccc(-c2ccc(Cl)cc2)cc1 [TCMDC-138818] | 1.63 | 4.95 | 1.75 | FAST | 5.86 | 6.11 | 0.84 | > 20 | – | – | – | – | – | – | – | – | – | –
COc1cc2nc(-c3ccc(Br)cc3)cc(N)c2cc1OC [TCMDC-138933] | – | 4.95 | – | SLOW | – | 6.77 | 0.17 | – | – | slow-acting | – | 0.89 | 6.53 | 3.91 | – | 8.17 | < 10 | 6.12
CCN1CCC2(c3cccc(OC)c3)Cc3nc4ccccc4c(-c4ccccc4)c3CC2C1 (stereo not drawn) [TCMDC-138968] | 21.53 | 33.25 | > 20 | SLOW | 5.84 | 6.46 | 0.79 | > 20 | – | – | – | – | – | – | – | – | – | –
CN1CCN(c2cc3c(cc2Cl)CCN3C(=O)Nc2ccc(NC(=O)c3ccc(C(F)(F)F)cc3)cc2)CC1.Cl [TCMDC-139270] | 1.67 | 3.99 | 1.54 | FAST | 6.16 | 6.29 | 1.10 | > 20 | – | – | – | – | – | – | – | – | – | –
O=C(Nc1cc(Cl)c(Cl)cc1NC(=O)c1cccc(-c2ccccc2)c1O)c1cccc(-c2ccccc2)c1O [TCMDC-139548] | 18.16 | 3.09 | 2.22 | FAST | 5.96 | 6.29 | 0.51 | > 20 | – | – | – | – | – | – | – | – | – | –
